# Source: patent publication US20230398220A1, “SIRNA-NANOBOWL-MEDIATED INTERVENTION OF COVID-19” (THE REGENTS OF THE UNIVERSITY OF CALIFORNIA, priority 2020, published 2023)
# Tested on: HEK 298 cell line
# Assay: MTT viability of HEK cells treated with nanobowls pre-loaded with siRNA and dexamethasone
# Conditions: normalized to untreated control
smiles,measurement,value
C[C@@H]1C[C@H]2[C@@H]3CCC4=CC(=O)C=C[C@]4(C)[C@@]3(F)[C@@H](O)C[C@]2(C)[C@@]1(O)C(=O)CO [dexamethasone],cell viability (MTT),cell viability decreased
